According to US20220280513A1, “ENHANCING THE ANTIVIRAL EFFICACY OF RNA VIRUS INHIBITION BY COMBINATION WITH MODULATORS OF PYRIMIDINE METABOLISM” (The Board of Trustees of the Leland Stanford Junior …, priority 2019, published 2022):

Target: T1, recombinant human UCK2 (Homo sapiens, UniProt Q9BZX2)
T1 construct: 6xHis (C); made in house; host or cells: E. coli BL21(DE3)
T1 sequence (Q9BZX2 1-261): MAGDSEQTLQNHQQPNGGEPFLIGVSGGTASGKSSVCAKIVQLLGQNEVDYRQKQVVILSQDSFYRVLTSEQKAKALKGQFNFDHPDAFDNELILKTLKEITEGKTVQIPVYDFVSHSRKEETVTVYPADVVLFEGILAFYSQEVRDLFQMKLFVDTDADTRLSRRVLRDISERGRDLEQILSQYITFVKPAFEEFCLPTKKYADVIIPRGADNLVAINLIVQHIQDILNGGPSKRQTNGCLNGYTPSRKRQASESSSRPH
Assay: In vitro enzyme activity assay with recombinant human UCK2 (PK/LDH-coupled, UV 340 nm)
Format: biochemical
From the text: In order to guide our SAR studies, we developed an enzymatic assay to evaluate the inhibitory effect of each CPU analog against recombinant human UCK2, which was expressed and purified in E. coli. A continuous assay system was optimized by coupling UCK2 activity to the pyruvate kinase (PK) reaction, which in turn was coupled to lactate dehydrogenase (LDH). Overall reaction progress was continuously monitored by detecting the UV absorption change at 340 nm, which was correlated with the ATP consumption by UCK2. The effect of 250 μM of each CPU analog on UCK2 activity was evaluated in the presence of 50 μM uridine. […] We then individually measured the steady state kinetic parameters of UCK2 using uridine, CPU and 5-F-CPU as substrates. Their KM values were 86, 25, and 41 μM, and their kcat/KM values were 2.6×10^5, 1.5×10^5, and 7.3×10^4 s^−1 M^−1 (FIG. 5B).
Cloning, expression and purification of recombinant human UCK2 and CMPK1: Uridine cytidine kinase 2 (UCK2) was cloned into the pET-21a(+) vector using Ndel and Notl as restriction sites. […] The resulting plasmid was transformed into E. coli BL21(DE3) cells by electroporation, recovered in SOC at 37° C. for 1 h and plated onto LB agar plates with kanamycin overnight at 37° C. A single, isolated colony was inoculated into 30 mL LB supplemented with 50 μg/mL kanamycin and grown at 37° C. with shaking for 15 h. The next day, these cells were used to inoculate 1 L autoclaved LB with 50 μg/mL kanamycin. The flask was shaken at 37° C. When an optical density (OD600) of 0.7 was reached, protein expression was induced with 0.5 mM isopropyl β-D-1-thiogalactopyranoside (IPTG). The temperature was changed to 18° C. and flasks were shaken for an additional 15 h. The cell pellets were collected by spinning the media at 5000 rpm for 10 min. The pellets obtained were frozen by liquid nitrogen and stored in −80° C. for protein purification. Cell pellets were thawed and resuspended in lysis buffer containing Tris (40 mM, pH 7.5), NaCl (10 mM), imidazole (10 mM), DTT (1 mM). Cells were lysed by sonication and centrifuged at 25,000 g for 1 h. The supernatant was incubated with a slurry of Ni-NTA resin for 1 h at 4° C. and loaded onto a column. The nickel column wash buffer was Tris (40 mM, pH 7.5), NaCl (10 mM), DTT (1 mM) and each wash step contained increasing concentrations of imidazole (10, 50, or 250 mM). After SDS-PAGE confirmation of the protein fractions, protein was further purified using fast protein liquid chromatography (FPLC) using buffer A (50 mM Tris-HCl pH 8, 1 mM dithiothreitol (DTT), 10% glycerol) and elution buffer B (50 mM Tris-HCl pH 8, 1mM dithiothreitol (DTT), 10% glycerol with 500 mM NaCl) with changing gradient over a 20 minute from 2% to 100% Buffer B. FPLC eluents containing the protein was concentrated using Am icon centrifugal filter with 3K cut-off and the enzyme was stored in storage buffer (50 mM Tris-HCl pH 7.5, 10% glycerol). Human cytidine monophosphate kinase 1 (CMPK1) was purified as previously described (Deans et al., 2016).
In vitro enzyme activity assays with recombinant human UCK2: To continuously monitor reaction progress spectrophotometrically, ATP hydrolysis was coupled to NADH oxidation via pyruvate kinase (PK) and lactate dehydrogenase (LDH). Reactions were conducted at room temperature in 100 μL in 96-well plates (Greiner Bio-One, UV-Star, Half Area). Mixtures contained 20 mM HEPES (pH 7.2), 100 mM KCl, 2 mM MgCl2, 300 μM ATP, 0-500 μM uridine, 0-500 μM CPU analogs, 10 nM UCK2, 1 mM phosphoenolpyruvate, 500 μM NADH and 20 units/mL of PK and LDH. Progress was monitored in the linear region using a Biotek Synergy HT and kinetic and inhibition constants were determined using GraphPad Prism 7 (GraphPad Software).

For `O=c1ccn([C@@H]2C=C(CO)[C@@H](O)[C@H]2O)c(=O)[nH]1` [CPU, 1-((1R,4R,5S)-4,5-dihydroxy-3-(hydroxymethyl)cyclopent-2-en-1-yl)pyrimidine-2,4(1H,3H)-dione], the “UCK2 substrate or not (ATP consumption)” value (250 μM analog in the presence of 50 μM uridine) was “substrates of UCK2” and the “rate of UMP synthesis” value (added to assay mixture containing UCK2, uridine (50 μM) and ATP) was “dose-dependent decrease”.
